# Test results: ChEMBL document CHEMBL1255314, “Outbreak of Acinetobacter baumannii with chromosomally encoded VIM-1 undetectable by imipenem-EDTA synergy tests” (2008)
# Assays:
# [1] = tested on: Acinetobacter baumannii; assay: Antimicrobial activity against Acinetobacter baumannii isolates by agar dilution method; assay type: functional
# [2] = biological target: Metallo-beta-lactamase (Acinetobacter baumannii) (UniProt Q4F6N3); assay: Activity of Acinetobacter baumannii VIM-1 assessed as compound hydrolysis
# [3] = biological target: Metallo-beta-lactamase (Acinetobacter baumannii) (UniProt Q4F6N3); assay: Activity of Acinetobacter baumannii isolate TZ42/166 VIM-1 assessed as compound hydrolysis
# [4] = biological target: BlaVIM-1 (Escherichia coli) (UniProt Q8GDC1); assay: Inhibition of VIM-1 activity in Escherichia coli extracts at 100 uM
# [5] = biological target: Metallo-beta-lactamase (Acinetobacter baumannii) (UniProt Q4F6N3); assay: Activity of Acinetobacter baumannii isolate TZ42/166 VIM-1 assessed as compound hydrolysis in presence of EDTA
Structure (SMILES),MIC [1] [µg/mL],further results
CO/N=C(\C(=O)N[C@@H]1C(=O)N2C(C(=O)O)=C(COC(C)=O)CS[C@H]12)c1csc(N)n1 [CEFOTAXIME],> 64,
C[C@@H](O)[C@H]1C(=O)N2C(C(=O)O)=C(S[C@@H]3CN[C@H](C(=O)N(C)C)C3)[C@H](C)[C@H]12 [MEROPENEM],16,
CC(C)(O/N=C(\C(=O)N[C@@H]1C(=O)N2C(C(=O)[O-])=C(C[n+]3ccccc3)CS[C@H]12)c1csc(N)n1)C(=O)O [CEFTAZIDIME],> 64,
C[C@@H](O)[C@H]1C(=O)N2C(C(=O)O)=C(SCCNC=N)C[C@H]12 [IMIPENEM ANHYDROUS],16,Activity [2]: 28 U; Activity [3]: 90 U; inhibition [4]: > 95%; Activity [5]: 1.5 U
CO/N=C(\C(=O)N[C@@H]1C(=O)N2C(C(=O)[O-])=C(C[N+]3(C)CCCC3)CS[C@H]12)c1csc(N)n1 [CEFEPIME],> 64,
C[C@H]1[C@H](NC(=O)/C(=N\OC(C)(C)C(=O)O)c2csc(N)n2)C(=O)N1S(=O)(=O)O [AZTREONAM],> 64,
